Data as given in ChEMBL document CHEMBL4483862, “Open-source discovery of chemical leads for next-generation chemoprotective antimalarials” (2018).

Tested on: Plasmodium berghei
Assay: Luciferase/luciferin-expressing antifolate-resistant parasites were used to infect a culture of HepG2 cells that were pre-incubated with compounds. Infected hepatocytes emit light due to the luciferase reaction. Assay results are presented as the percent inhibition of light emission compared to control. […]
Assay type: functional
Settings: sporozoite; for IC50: read-out: LUCIFERASE INFECTION ASSAY - IC50; for IC90: read-out: LUCIFERASE INFECTION ASSAY - IC90

## Cc1noc2nc(C3CC3)cc(C(=O)Oc3ccc(N4CCCC4=O)cc3)c12
  IC50: > 10 µM
  IC90: > 10 µM

## O=C(c1cc(S(=O)(=O)Nc2cccc(-n3cccn3)c2)c[nH]1)N1CCCC1
  IC50: 9.51 µM
  IC90: > 10 µM

## CC(Sc1nnc2ccc(C(F)(F)F)cn12)C(=O)NCC1CCCO1 (configuration not stated)
  IC50: > 10 µM
  IC90: > 10 µM

## N#Cc1cccc(-c2nnco2)c1
  IC50: > 10 µM
  IC90: > 10 µM

## CN1CCCN(c2ccc(NC(=O)OCC(F)(F)F)cc2F)CC1
  IC50: > 10 µM
  IC90: > 10 µM

## Nc1cc(-c2ccc(Br)s2)n[nH]1
  IC50: > 10 µM
  IC90: > 10 µM

## O=C(CNC(=O)c1ccc(N2CCCC2=O)cc1)NCCCn1cccn1
  IC50: > 10 µM
  IC90: > 10 µM

## Cc1ccc(-c2cc(C(=O)N(C)Cc3ccc(C(=O)NC4CC4)cc3)on2)cc1
  IC50: > 10 µM
  IC90: > 10 µM

## Cc1ccc(C(=O)Nc2ccnn2CC(C)C)cn1
  IC50: > 10 µM
  IC90: > 10 µM

## Nc1nc(SCc2cc(=O)n3c(n2)sc2ccccc23)nc2sccc12
  IC50: > 10 µM
  IC90: > 10 µM

## Cc1ccc2nc(NC(=O)c3ccc(OCc4nccn4C)cc3)sc2c1
  IC50: > 10 µM
  IC90: > 10 µM

## Cc1cc(C(=O)Nc2ccncc2Cl)c(C)s1
  IC50: > 10 µM
  IC90: > 10 µM

## Cc1c(C(=O)OCc2ccccc2C(F)(F)F)sc2ncn(C)c(=O)c12
  IC50: 8.3 µM
  IC90: > 10 µM

## CC(OC(=O)c1cccc(Cl)c1N)C(=O)N(C(C)C)C(C)C (configuration not stated)
  IC50: > 10 µM
  IC90: > 10 µM

## Cn1c(=O)[nH]c(=O)c2c1nc(Nc1ccc(Cl)cc1Cl)n2CC(=O)O
  IC50: > 10 µM
  IC90: > 10 µM

## CN(C)C(CNc1cc(C(=O)NC2CC2)c2ccccc2n1)Cc1ccccc1 (configuration not stated)
  IC50: > 10 µM
  IC90: > 10 µM

## N#Cc1cnc2c(Cl)cc(F)cc2c1Cl
  IC50: > 10 µM
  IC90: > 10 µM

## COc1cccc(CC(=O)Nc2ccc(N3CCNC(=O)C3)c(Cl)c2)c1
  IC50: > 10 µM
  IC90: > 10 µM

## NC(=O)C1CN(S(=O)(=O)c2cc(Cl)sc2Cl)c2ccccc2O1 (configuration not stated)
  IC50: > 10 µM
  IC90: > 10 µM

## NC(=O)c1ccc(N2CCNCC2)nc1
  IC50: > 10 µM
  IC90: > 10 µM

## O=C(NCc1ccc(N2CCCCC2)nc1)c1cccc2c[nH]nc12
  IC50: > 10 µM
  IC90: > 10 µM

## CN(CCO)C(=O)NCCC(c1ccccc1)c1ccccc1
  IC50: > 10 µM
  IC90: > 10 µM

## CC(C)Sc1ncccc1C(=O)N1CCN(c2oc(C3CC3)nc2C#N)CC1
  IC50: > 10 µM
  IC90: > 10 µM

## CN(Cc1ccccc1)C(=O)Nc1cccc2ncccc12
  IC50: > 10 µM
  IC90: > 10 µM

## O=C(Cc1csc(-c2ncccn2)n1)Oc1ccc(N2CCCC2=O)cc1
  IC50: > 10 µM
  IC90: > 10 µM

## Nc1nc(CSc2nccc(C(F)(F)F)n2)nc(Nc2ccc(F)cc2)n1
  IC50: > 10 µM
  IC90: > 10 µM

## COc1ccc(Sc2ccc(NC(=O)C(C)n3ccnc3)cc2Cl)cc1 (configuration not stated)
  IC50: > 10 µM
  IC90: > 10 µM

## COC(=O)C1CC2CCCCC2N1C(=O)c1nn(C)c(=O)c2ccccc12 (configuration not stated)
  IC50: > 10 µM
  IC90: > 10 µM

## CN(CC(=O)Nc1nc(-c2c[nH]c3ccccc23)cs1)C1CCCCC1
  IC50: > 10 µM
  IC90: > 10 µM

## Cc1nc(NC(=O)c2ccc(-n3ccnc3)nc2)sc1SCC#N
  IC50: > 10 µM
  IC90: > 10 µM

## N#Cc1ccc(NC(=O)C2CC2(Cl)Cl)cc1 (configuration not stated)
  IC50: > 10 µM
  IC90: > 10 µM

## CN(Cc1nc2ccccc2[nH]1)c1nccc(C(F)(F)F)n1
  IC50: > 10 µM
  IC90: > 10 µM

## O=C(C1CCCO1)N1CCn2c1nc1ccccc12 (configuration not stated)
  IC50: > 10 µM
  IC90: > 10 µM

## C=CCNC(=O)NCC(=O)Nc1ccc(OC)c(Cl)c1
  IC50: > 10 µM
  IC90: > 10 µM

## C=CCn1cnnc1SCC(=O)c1cccn1C
  IC50: > 10 µM
  IC90: > 10 µM

## Cc1nc(Sc2ncnc3c(Br)cccc23)sc1CC(N)=O
  IC50: > 10 µM
  IC90: > 10 µM

## Cc1nn2c(=O)cc(Cn3ccnc3)nc2s1
  IC50: > 10 µM
  IC90: > 10 µM

## O=C(Nc1cccc(Cl)c1)N1CCN(C(=O)c2ccoc2)CC1
  IC50: > 10 µM
  IC90: > 10 µM

## Cn1c(Cl)cnc1CN1CCN(CC(=O)Nc2ccccc2Cl)CC1
  IC50: > 10 µM
  IC90: > 10 µM

## Cc1cc(NC(=O)C2CC2)sc1C(=O)N1CCNC(=O)C1
  IC50: > 10 µM
  IC90: > 10 µM

## CCOc1ccc(N2CC(C(=O)N3CCCC(c4nc(C)no4)C3)CC2=O)cc1 (configuration not stated)
  IC50: > 10 µM
  IC90: > 10 µM

## Cn1cnnc1C1CCCN(S(C)(=O)=O)C1 (configuration not stated)
  IC50: > 10 µM
  IC90: > 10 µM

## Cc1ccc(NC(=O)c2ccc(S(=O)(=O)N3CCOCC3)o2)cc1Cl
  IC50: > 10 µM
  IC90: > 10 µM

## Cn1c(NCCOc2cccc3c2OC(C)(C)C3)c(C#N)c(=O)n(C)c1=O
  IC50: > 10 µM
  IC90: > 10 µM

## CCCOc1ccc2ccccc2c1CN(C)c1cncc(-n2cccn2)n1
  IC50: > 10 µM
  IC90: > 10 µM

## c1ccc(-c2nnc(CSC3=NCCS3)o2)cc1
  IC50: > 10 µM
  IC90: > 10 µM
